Results taken from patent US9918480B2, “Compositions and methods to selectively control invasive species” (STEPHEN F. AUSTIN STATE UNIVERSITY, priority 2013, dated 2018).
Where two headings read alike, the source gives them in different places.

Experiments:
[1] = tested on: giant salvinia (Salvinia molesta); test: Spray of salviniside II and other isolates/fractions on giant salvinia plants; assay type: in vivo; parameters: key to activity class against giant salvinia: inactive: not able to inhibit the growth of giant salvinia at all; active: able to fully inhibit the growth of giant salvinia at high concentrations; very active: able to fully inhibit the growth of giant salvinia at low concentrations
Protocol: The combined fractions were loaded on a pre-equilibrated open ODS column (60×600 mm). The ODS column was eluted successively with 30%, 55%, 75% and 100% MeOH to yield four fractions F1, F2, F3, and F4, respectively. […] NMR experiments were performed on a JEOL ECS-400 and a Bruker Avance 700 NMR instrument. NMR data were reported as δ (ppm) values and referenced to the solvent used. HRESIMS were acquired on an electrospray instrument (MDS Sciex Pulsar Qstar, Ontario, Canada). Octadecyl-functionalized silica gel, silica gel, Sephadex LH-20, and TLC plates were purchased from Aldrich Chemical Co. HPLC analysis was performed on a Hewlett Packard Series 1100 with a HP 1100 diode array detector using a Hypersil ODS column (150×4.6 mm, 5 μM, Supelco; flow rate, 1 mL/min; MeOH/H2O (v/v) linear gradient, 2:98-98:2 in 35 min). Preparative HPLC was performed with an Acuflow Series III pump connected with an Acutect 500 UV/VIS detector using an Econosil ODS column (250×22 mm, 10 μM, All tech). The total 27 healthy and untreated living plants of giant salvinia (in secondary growth stage, approximately 10 g in fresh weight each) were cultured and tested in plastic containers (14×15 cm, 0.68 L) in the NCPC Lab at RT. The […] treatments were as follows. Controls: 9 plants with three in each container (3 replications) were cultured with 150 mL of tap water; 0.01% salviniside II treatment: 9 plants with three in each container (3 replications) were sprayed with 150 mL 0.01% of salviniside II dissolved in tap water; and 0.1% salviniside II treatment: 9 plants with three in each container (3 replications) were sprayed with 150 mL 0.1% of salviniside II dissolved in tap water. […] By the end of two weeks, new growth biomass of plants in each treatment was measured. The biomass of new growth was a primary factor to measure the inhibition of each treatment on the target plant.

L. leucocephala = settings: 100 mg/L; cited from earlier work
[2] = tested on: red imported fire ant (Solenopsis invicta Buren) workers; test: Contact toxicity assay, topical spray on fire ant workers, 7 h; assay type: in vivo; settings: PROBIT
Protocol: (§1) Preparation of the fire ant extracts: (1) Acetone extract: 97 g (in fresh weight) of the red imported fire ant workers were extracted two times with acetone at RT (each 250 mL, 24 h). […] (2) Ethanol extract: 110 g (in fresh weight) of the whole worker bodies of the red imported fire ant (Solenopsis invicta Buren) (family Furmicidae) were extracted two times with 95% EtOH at RT (each 250 mL, 24 h). […] Both extracts were dissolved in water and then prepared as experimental solutions at the concentration of 0.1%, 1%, 5%, and 10%, respectively. […] The mixture was put under ultrasound for 30 min extraction. The fire ants were then removed and the extract was dried with anhydrous magnesium sulfate. 500 μL of the extract was transferred to NMR tube for detection. ^1H-NMR experiments were performed on a JEOL ECS 400 spectrometer, with spectroscopic data referenced to the solvent used. […] The ants in each beaker were topically sprayed with a total 1 mL of 0.1%, 1%, 5%, or 10% solutions of either acetone or ethanol extract, respectively. The control group was sprayed with 1 mL pure water. The beakers in all treatments were covered by cloth to prevent the escape of the fire ants. The surviving number of the fire ants in each treatment was counted by 1 h interval for 7 h. […] The ants in each beaker were topically sprayed with a total 1 mL of 0.1%, 1%, or 5% solutions of either formic or acetic acids, respectively. The control group was sprayed with 1 mL pure water. The beakers in all treatments were covered by cloth to prevent the escape of fire ants. The surviving number of the fire ants in each treatment was counted by 1 h interval for 7 h. […] The surviving number of the fire ants in each treatment was counted by 15 min interval for 90 min. […] The surviving number of the fire ants in each treatment was counted by 15 min interval for 90 min. […] The surviving number of the fire ants in each treatment was counted by 1 h interval for 7 h. […] The surviving number of the fire ants in each treatment was counted by 1 h interval for 2 h. […]

[3] = tested on: giant salvinia (Salvinia molesta)
Protocol: Plant growth and survival status were documented and photographed hourly for the first 5 h and then daily for seven days after the treatment.

[4] = tested on: red imported fire ant (Solenopsis invicta Buren) workers; settings: for average mortality: 90 min
Protocol: as §1

[5] = tested on: subterranean termite (Reticulitermes flavipes (Kollar)); settings: for termite kill: during the first hour
Protocol: The mixture was put under ultrasound for 30 min extraction. The termites were then removed and the extract was dried with anhydrous magnesium sulfate. 500 μL of the extract was transferred to NMR tube for detection. ^1H-NMR experiments were performed on a JEOL ECS 400 spectrometer, with spectroscopic data referenced to the solvent used. […] The control group was sprayed with 1 mL pure water. The beakers in all treatments were covered by cloth to prevent the escape of termites. The surviving number of the termites in each treatment was counted by 1 h interval for 7 h.

[6] = tested on: seedlings of rice cultivars; settings: vs four species of Brassicaceae, Asteraceae, Fabaceae and five weed grass species of Poaceae; cited from earlier work

4″,6″-O-[3,5-dicarbonyl-8-hydroxy-2-(4′,5′-dihydroxy-phenyl)-1-benzofuran-2-yl]-D-glucopyranose [salviniside II]
new growth thereafter ([1]; 0.1%, eight months of observation): no new growth
growth of giant salvinia ([1]; 0.1%, within two weeks, lab at RT): totally inhibited
activity class against giant salvinia ([1]; isolates and subfractions of F3): active

NC(Cn1ccc(=O)c(O)c1)C(=O)O (stereo not shown) [Minosine]
inhibition on the producing plants (L. leucocephala): did not show any inhibition

CC(=O)O [acetic acid]
7 h LD50 [2]: 6.42%
7 h LD90 [2]: 9.96%

O=CO [formic acid]
growth inhibition ([3]; 0.01% concentration): still effectively inhibited the growth of giant salvinia
plants killed ([3]; 0.05% concentration, within 24 h): approximately 50%
7 h LD90 [2]: 5.09%
average mortality ([4]; 2.5%): more than 70%
average mortality ([4]; 5%): 100%
2 h LD90 ([4]; fumigation, PROBIT): 0.9%
impact on the termites ([5]; 0.1%): no impact
termites killed ([5]; 1%, 7 h): more than 40%
termite kill ([5]; 5%): killed all termites
termite kill ([5]; 10%): killed all termites
7 h LD90 ([5]; contact toxicity): 9.08%

C=C[C@]1(C)CC[C@@H]2C(=C[C@H]3OC(=O)[C@@]4(C)C(=O)CC[C@@]2(C)[C@@H]34)C1 [momilactone A]
effective concentration to inhibit rice seedlings relative to that for other species [6]: 100 times

C=C[C@]1(C)CC[C@@H]2C(=C[C@H]3OC(=O)[C@]4(C)[C@H]3[C@]23CC[C@@]4(O)OC3)C1 [momilactone B]
effective concentration to inhibit rice seedlings relative to that for other species [6]: 333 times
